Test results: US20260125346A1, “Isoquinolinone Derivatives and 4H-Quinolizinone Derivatives and Pharmaceutical Compositions Thereof for the Treatment of Disease” (BeOne Medicines I GmbH, priority 2023, published 2026)

What was measured:
Format in all cases: cell-based
[1] = system: PI3Kα H1047R mutated cell line T-47D; test: Phospho-AKT (Ser473) Inhibition Assay (HTRF), T-47D; conditions: for IC50: Homo sapiens, T47D, T-47D, 1 hour treatment, read-out: p-AKT Inhibition assay (S473) IC50 T-47D; for Selectivity: SK-BR-3/T-47D (p-AKT): p-AKT (S473) IC50 ratio
Procedure, shortened: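 Cells seeded overnight in insulin-supplemented MEM, then treated 1 h with 11-point 1:3 compound dilutions (10 μM to 0.1 nM final, 0.1% DMSO). Lysates assayed for phospho-AKT Ser473 by HTRF; IC50 from 4-parameter logistic fit, normalised to DMSO (max) and 10 μM GDC0077 (min).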

[2] = system: PI3Kα H1047R mutated cell line T-47D cells; test: Cell Proliferation Assay (CellTiter-Glo), T-47D; conditions: for IC50: Homo sapiens, T47D, 72 h, T-47D, 3 days treatment; for Selectivity: SK-BR-3/T-47D (cell proliferation): cell proliferation IC50 ratio
Procedure, shortened: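 T-47D cells seeded overnight at 3×10^3/well, then exposed 3 days to 9-point 1:3 dilutions, final […] to 1 nM in 0.1% DMSO. CellTiter-Glo luminescence; relative IC50 from percent inhibition versus medium-only and 0.1% DMSO controls, 4-parameter logistic fit.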

[3] = system: WT cell line SK-BR-3; test: Cell Proliferation Assay (CellTiter-Glo), SK-BR-3; conditions: Homo sapiens, 72 h; SK-BR-3, 3 days treatment
Procedure, shortened: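 SK-BR-3 cells treated for 3 days with compound in a 9-point series, final concentrations 10 M to 1 nM in 0.1% DMSO. Viability read by CellTiter-Glo luminescence. Relative IC50 from percent inhibition versus medium-only and DMSO controls, four-parameter logistic fit.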

Cc1cc(C(C)Nc2ccccc2C(=O)O)c2cc(-c3ccc(C(F)(F)F)nc3)n(C)c(=O)c2c1 (stereo not shown) [Example 86, 2-((1-(2,7-dimethyl-1-oxo-3-(6-(trifluoromethyl)pyridin-3-yl)-1,2-dihydroisoquinolin-5-yl)ethyl)amino)benzoic acid]
IC50 [1]: 0.372 µM
Selectivity: SK-BR-3/T-47D (p-AKT) [1]: >27
IC50 [2]: 0.375 µM
Selectivity: SK-BR-3/T-47D (cell proliferation) [2]: >26.6
IC50 [3]: > 10 µM

Cc1cc(C(C)Nc2ccccc2C(=O)O)c2cc(-c3cnn(CC45CC6C[C@H](C4)C[C@H](C6)C5)c3C)n(C)c(=O)c2c1 (stereo partly drawn) [Example 87, 2-((1-(3-(1-(((3S,5S)-adamantan-1-yl)methyl)-5-methyl-1H-pyrazol-4-yl)-2,7-dimethyl-1-oxo-1,2-dihydroisoquinolin-5-yl)ethyl)amino)benzoic acid]
IC50 [1]: 0.432 µM
Selectivity: SK-BR-3/T-47D (p-AKT) [1]: 6.6
IC50 [2]: 0.89 µM
Selectivity: SK-BR-3/T-47D (cell proliferation) [2]: >11.2
IC50 [3]: > 10 µM

Cc1cc(C(C)Nc2ccccc2C(=O)O)c2cc(C#Cc3ccn(C)n3)n(C)c(=O)c2c1 (stereo not shown) [Example 88, 2-((1-(2,7-dimethyl-3-((1-methyl-1H-pyrazol-3-yl)ethynyl)-1-oxo-1,2-dihydroisoquinolin-5-yl)ethyl)amino)benzoic acid]
IC50 [1]: 0.0685 µM
Selectivity: SK-BR-3/T-47D (p-AKT) [1]: 28.3
IC50 [2]: 0.695 µM
Selectivity: SK-BR-3/T-47D (cell proliferation) [2]: >14
IC50 [3]: > 10 µM

Cc1cc(C(C)Nc2ccccc2C(=O)O)c2cc(C#CC3(O)CCCC3)n(C)c(=O)c2c1 (stereo not shown) [Example 89, 2-((1-(3-((1-hydroxycyclopentyl)ethynyl)-2,7-dimethyl-1-oxo-1,2-dihydroisoquinolin-5-yl)ethyl)amino)benzoic acid]
IC50 [1]: 0.184 µM
Selectivity: SK-BR-3/T-47D (p-AKT) [1]: 37.2
IC50 [2]: 0.938 µM
Selectivity: SK-BR-3/T-47D (cell proliferation) [2]: >11
IC50 [3]: > 10 µM

Cc1cc(C(C)Nc2ccccc2C(=O)O)c2cc(C#Cc3cnn(-c4ccccc4)c3)n(C)c(=O)c2c1 (stereo not shown) [Example 94, 2-((1-(2,7-dimethyl-1-oxo-3-((1-phenyl-1H-pyrazol-4-yl)ethynyl)-1,2-dihydroisoquinolin-5-yl)ethyl)amino)benzoic acid]
IC50 [1]: 3.28 µM
Selectivity: SK-BR-3/T-47D (p-AKT) [1]: >3.05
IC50 [2]: > 10 µM
IC50 [3]: > 10 µM

Cc1cc(C(C)Nc2ccccc2C(=O)O)c2cc(-c3ccc(F)cc3)n(C3COC3)c(=O)c2c1 (stereo not shown) [Example 95, 2-((1-(3-(4-fluorophenyl)-7-methyl-2-(oxetan-3-yl)-1-oxo-1,2-dihydroisoquinolin-5-yl)ethyl)amino)benzoic acid]
IC50 [1]: 0.0256 µM
Selectivity: SK-BR-3/T-47D (p-AKT) [1]: 52.9
IC50 [2]: 0.284 µM
Selectivity: SK-BR-3/T-47D (cell proliferation) [2]: >35
IC50 [3]: > 10 µM

Cc1cc(C(C)Nc2ccccc2C(=O)O)c2cc(-c3ccc(F)cc3)n(C3CCOCC3)c(=O)c2c1 (stereo not shown) [Example 96, 2-((1-(3-(4-fluorophenyl)-7-methyl-1-oxo-2-(tetrahydro-2H-pyran-4-yl)-1,2-dihydroisoquinolin-5-yl)ethyl)amino)benzoic acid]
IC50 [1]: 0.33 µM
Selectivity: SK-BR-3/T-47D (p-AKT) [1]: 28.8
IC50 [2]: 0.993 µM
Selectivity: SK-BR-3/T-47D (cell proliferation) [2]: >10
IC50 [3]: > 10 µM

Cc1cc(C(C)Nc2ccncc2C(=O)O)c2cc(-c3ccc(F)cc3)n(C)c(=O)c2c1 (stereo not shown) [Example 97, 4-((1-(3-(4-fluorophenyl)-2,7-dimethyl-1-oxo-1,2-dihydroisoquinolin-5-yl)ethyl)amino)nicotinic acid]
IC50 [1]: > 10 µM
IC50 [2]: > 10 µM
IC50 [3]: > 10 µM
